Source: patent US20250051361A1, “5,6,7,8-TETRAHYDRO-2,6-NAPHTHYRIDINE DERIVATIVES AS CANCER THERAPEUTICS” (VRise Therapeutics, Inc., priority 2021, published 2025)
Structures can show the parent of a compound that is named as a salt.

Key:
HPAC cells = assay: In vitro cell proliferation assay in HPAC cell line; type: cell-based; conditions: Homo sapiens; for inhibition at 3 µM: TC1: Test Concentration of 3 uM; for inhibition at 10 µM: TC2: Test Concentration of 10 uM
Procedure: (§1) Test 1: In Vitro Cell Proliferation Assay in HPAC and AGS Cell Lines
(§2) Growth inhibition assays was carried out using 10% FBS supplemented media. Cells are to be seeded at a concentration of 2000-3,000 cells/well in a 96-well plate. Test compounds at a concentration range from 0.1 to 30 uM will be added after 24 hours. Growth will be assessed using the MTT or CCK-8 kit for measuring reduction at 0 h (prior to the addition of the test compound) and 72 to 96 hours after the addition of test compound. Absorbance read on a BIO-RAD iMark Microplate or any equivalent micloplate reader at a wavelength of 450 nm to 600 nm. Data will be analyzed and percent inhibition due to the test compound compared to the control is calculated accordingly.

AGS cells = assay: In vitro cell proliferation assay in AGS cell line; type: cell-based; conditions: Homo sapiens; for inhibition at 3 µM: TC1: Test Concentration of 3 uM; for inhibition at 10 µM: TC2: Test Concentration of 10 uM
Procedure: as §1, §2

CT-26 = assay: In vitro cell proliferation assay in KRASG12 cell lines (CT-26); type: cell-based; conditions: Mus musculus, CT26; Cell Line CT-26; Cell Titer-Glo, 3 day (2D) or 7 day (3D)
Procedure: Test 2: In Vitro Cell Proliferation Assay in KRASG12 Cell lines Growth inhibition assays was carried out using 10% FBS supplemented media. Cells were seeded at a desired concentration of 1000-2,000 cells/well in a well plate with desired number of wells. Test compounds at a desired concentration range were added after 24 hours. Growth was assessed using the Cell Titer-Glo (CTG, Cell Signaling) for measuring reduction at 0 h (prior to the addition of the test compound) and 3 day (2D) or 7 day (3D) after the addition of test compound. Absorbance read on a BIO-RAD iMark Microplate or any equivalent microplate reader at a predetermined a wavelength for e.g. 450 nm. Data was be analysed and percent inhibition and/or IC50 for each test compound is calculated accordingly.

human KRAS G12D protein = biological target: T1, human KRAS G12D protein (Homo sapiens, UniProt P01116, G12D); assay: HTRF-based nucleotide exchange assay detecting GTP binding to K-Ras; type: biochemical; conditions: human KRAS G12D (amino acid 2-169), SOS1 mediated exchange
T1 construct: A human KRAS G12D protein (corresponding to amino acid 2-169)
Procedure: Test 3: Nucleotide Exchange Assay HTRF-based nucleotide exchange assay detecting GTP binding to K-Ras A human KRAS G12D protein (corresponding to amino acid 2-169) was mixed with a a-GST Tb antibody (1.5× solution) and 10 uL of the solution was added to the reaction wells). Compounds (each 10 concentrations or any other concentration of choice at 3-fold or fold of choice for serial dilutions with a starting concentration of […] or or 100 μM or 50 uM) were then delivered to the reaction wells using acoustic dispenser (Echo, Labcyte) and incubated with the Kras/aGST-Tb antibody for 1-hour at room temperature. […] HTRF based SOS1 mediated exchange of GDP to GTP was measured on a microplate reader […] (BMG Labtech) at an excitation wavelength of 337 nm and emission wavelengths of 665 and 620 nm. No-SOS1 reaction or highest control compound concentration was used as blank and % inhibition was calculated and/or IC50 was determined using Sigmoidal dose response (variable slope) equation.

T1 sequence (P01116 2-169 isoform P01116-2 G12D): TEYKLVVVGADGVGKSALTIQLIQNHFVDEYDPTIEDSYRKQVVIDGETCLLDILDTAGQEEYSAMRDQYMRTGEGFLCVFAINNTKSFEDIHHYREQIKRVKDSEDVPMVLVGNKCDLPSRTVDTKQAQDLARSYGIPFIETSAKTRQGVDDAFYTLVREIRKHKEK

N#Cc1c(OCC23CCCN2C[C@H](F)C3)nc(N2CC3CCC(C2)N3)c2c1CN(c1cccc3cccc(Cl)c13)CC2 (stereo partly drawn) [Ex 17, 1-(3,8-diazabicyclo[3.2.1]octan-3-yl)-6-(8-chloronaphthalen-1-yl)-3-(((2R)-2-fluorotetrahydro-1H-pyrrolizin-7a(5H)-yl)methoxy)-5,6,7,8-tetrahydro-2,6-naphthyridine-4-carbonitrile Hydrochloride]
inhibition at 3 µM (HPAC cells): 25 to 50% | inhibition at 10 µM (HPAC cells): 75 to 100% | inhibition at 3 µM (AGS cells): 25 to 50% | inhibition at 10 µM (AGS cells): 75 to 100% | IC50 (CT-26): 2500 to 5000 nM | IC50 (human KRAS G12D protein): 25 to 50 nM

N#Cc1c(OCC23CCCN2C[C@H](F)C3)nc(N2CC3CCC(C2)N3)c2c1CN(c1cc(O)cc3ccccc13)CC2 (stereo partly drawn) [Ex 25, 1-(3,8-diazabicyclo[3.2.1]octan-3-yl)-3-(((2R)-2-fluorotetrahydro-1H-pyrrolizin-7a(5H)-yl)methoxy)-6-(3-hydroxynaphthalen-1-yl)-5,6,7,8-tetrahydro-2,6-naphthyridine-4-carbonitrile Hydrochloride]
inhibition at 3 µM (HPAC cells): 25 to 50% | inhibition at 10 µM (HPAC cells): 75 to 100% | inhibition at 3 µM (AGS cells): 75 to 100% | inhibition at 10 µM (AGS cells): 75 to 100% | IC50 (CT-26): 5000 to 10000 nM | IC50 (human KRAS G12D protein): < 25 nM

CN1CCC[C@H]1COc1nc(N2CC3CCC(C2)N3)c2c(c1C#N)CN(c1cccc3cccc(Cl)c13)CC2 [Ex 16, 1-(3,8-diazabicyclo[3.2.1]octan-3-yl)-6-(8-chloronaphthalen-1-yl)-3-(((S)-1-methylpyrrolidin-2-yl)methoxy)-5,6,7,8-tetrahydro-2,6-naphthyridine-4-carbonitrile Hydrochloride]
inhibition at 3 µM (HPAC cells): 50 to 75% | inhibition at 10 µM (HPAC cells): 75 to 100% | inhibition at 3 µM (AGS cells): 50 to 75% | inhibition at 10 µM (AGS cells): 50 to 75% | IC50 (CT-26): < 2500 nM | IC50 (human KRAS G12D protein): 200 to 1000 nM
